In assay [1] the test system is localized gynoid lipodystrophy of the thighs and of the buttocks (LGL). The following applies: small dose, topical.
Experimental: The applicant carried out a comparative trial intended to evaluate the efficacy of the composition of the invention, as a local topical application, in patients with gynoid lipodystrophy of the thighs and of the buttocks, in comparison with a placebo, considered as a control group. Concomitantly, the effects of the composition on the softness and firmness of the skin were assessed.
It is a randomized comparative double blind monocenter trial comprising two groups of treatment of localized gynoid lipodystrophy of the thighs and of the buttocks (LGL):
This trial lasted for 9 weeks and comprised a one-week inclusion phase, followed by an 8-week treatment phase. It was carried out in patients suffering from LGL.
Evaluation carried out during the inclusion visit, at D28, and at the final visit for the principal and secondary criteria.
1.-Measurement of the adipose panicle by ultrasound scan, measured with the aid of a wide probe, by looking at the great trochanter of each femur.
The probe was placed on a tripod, at the constant level of the ground for each subject. The measurement was carried out after acquiring the last possible image by detaching the probe from the skin plane.
For assay [2] the following is noted: no significant difference in weight versus placebo at D28 or D56.

With `CN1CCCC1c1cccnc1` (centres unmarked) [Nicotine, nicotine], the “reduction of the thickness of localized gynoid lipodystrophy (cellulite), on average” value in assay [1] amounted to 8.9%. Besides, in assay [2], the overall slimming effect result is recorded as “no overall slimming effect”.
